From ChEMBL document CHEMBL1127900, “Preparative chiral HPLC separation of all possible stereoisomers of LY191704 and LY266111 and their in vitro inhibition of human types 1 and 2 steroid 5-reductases” (Bioorg Med Chem Lett, 1994)
pKi: −log10 of the molar value.

How the values were obtained:
[1] = target: T1, 3-oxo-5-alpha-steroid 4-dehydrogenase 2 (Homo sapiens, UniProt P31213); experiment: In vitro inhibition of recombinant human Steroid 5-alpha-reductase type 2; conditions: read-out: Ki app
T1 sequence (P31213 whole entry): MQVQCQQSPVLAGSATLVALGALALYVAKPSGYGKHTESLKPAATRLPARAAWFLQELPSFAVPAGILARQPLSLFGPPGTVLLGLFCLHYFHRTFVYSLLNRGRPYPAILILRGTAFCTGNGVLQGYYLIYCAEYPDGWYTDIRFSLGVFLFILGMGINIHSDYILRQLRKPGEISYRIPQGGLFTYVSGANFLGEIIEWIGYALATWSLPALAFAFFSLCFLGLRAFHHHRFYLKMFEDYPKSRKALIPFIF

[2] = target: T2, 3-oxo-5-alpha-steroid 4-dehydrogenase 1 (Homo sapiens, UniProt P18405); experiment: In vitro inhibition of recombinant human Steroid 5-alpha-reductase type I; conditions: read-out: Ki app
T2 sequence (P18405 whole entry): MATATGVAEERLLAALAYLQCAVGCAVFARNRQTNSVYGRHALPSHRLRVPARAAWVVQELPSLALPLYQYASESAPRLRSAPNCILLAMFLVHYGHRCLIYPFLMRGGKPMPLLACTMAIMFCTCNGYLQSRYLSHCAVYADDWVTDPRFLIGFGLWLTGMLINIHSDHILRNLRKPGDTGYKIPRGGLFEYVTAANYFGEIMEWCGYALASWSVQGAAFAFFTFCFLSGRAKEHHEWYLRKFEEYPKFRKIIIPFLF

[3] = target: T1, 3-oxo-5-alpha-steroid 4-dehydrogenase 2; experiment: In vitro inhibition of recombinant human Steroid 5-alpha-reductase type 2; No inhibition

pKi [1]	pKi [2]	Ki app [3]	Compound
6.34	7.77	–	CN1C(=O)CCC2=C1CCc1cc(Cl)ccc12
–	6.74	Not Active	CN1C(=O)CC[C@@]2(C)C1=CCc1cc(Cl)ccc12 (racemic)
< 6.00	8.05	–	CN1C(=O)CC[C@]2(C)c3ccc(Cl)cc3CC[C@@H]12 (stereo in doubt; (+))
6.00	8.22	–	CN1C(=O)CC[C@@H]2c3ccc(Cl)cc3CC[C@H]21 (stereo in doubt; (+)) [BEXLOSTERIDE]
6.00	7.82	–	CN1C(=O)CC[C@@H]2c3ccc(Cl)cc3CC[C@@H]21 (stereo in doubt; (+)-3)
< 5.60	5.40	–	CN1C(=O)CC[C@]2(C)c3ccc(Cl)cc3CC[C@H]12 (stereo in doubt; (+)-4)
< 6.00	8.00	–	CN1C(=O)CC[C@]2(C)c3ccc(Cl)cc3CC[C@@H]12 (stereo in doubt; (-))
5.92	8.40	–	CN1C(=O)CC[C@@H]2c3ccc(Cl)cc3CC[C@H]21 (stereo in doubt; (-)) [BEXLOSTERIDE]
5.27	7.82	–	CN1C(=O)CC[C@@H]2c3ccc(Cl)cc3CC[C@@H]21 (stereo in doubt; (-)-3)
< 5.60	5.15	–	CN1C(=O)CC[C@]2(C)c3ccc(Cl)cc3CC[C@H]12 (stereo in doubt; (-)-4)
